Data published in US7482374B2, “Pyrrolidine-2-ones as Factor Xa inhibitors” (Glaxo Group Limited, priority 2003, dated 2009).
Structures can show the parent of a compound that is named as a salt.

molecular target: T1, human Factor Xa (Homo sapiens, UniProt P00742); experiment: In vitro assay for inhibition of Factor Xa (fluorogenic assay, Rhodamine 110 bis-CBZ-glycylglycyl-L-arginine amide substrate); format: biochemical; details: Ki = IC50/1.6; 15 min preincubation, substrate 10 μM, room temperature, pH 7.4
T1 construct: containing human Factor Xa (final conc. Of 0.0003 U·ml−1)
T1 sequence (P00742 235-488 limits assumed): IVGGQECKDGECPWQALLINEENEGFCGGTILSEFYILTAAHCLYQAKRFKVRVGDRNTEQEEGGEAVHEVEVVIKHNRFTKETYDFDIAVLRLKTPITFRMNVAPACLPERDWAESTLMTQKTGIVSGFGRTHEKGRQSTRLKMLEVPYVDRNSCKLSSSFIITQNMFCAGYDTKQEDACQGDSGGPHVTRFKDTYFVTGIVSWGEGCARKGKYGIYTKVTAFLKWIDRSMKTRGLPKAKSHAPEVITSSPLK
T1 sequence (P00742 41-179 partner limits assumed): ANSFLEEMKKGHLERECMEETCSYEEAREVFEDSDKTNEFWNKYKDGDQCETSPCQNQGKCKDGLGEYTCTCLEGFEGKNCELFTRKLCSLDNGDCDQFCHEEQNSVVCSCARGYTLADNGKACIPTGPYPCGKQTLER
Experimental: In Vitro Assay for Inhibition of Factor Xa
Compounds of the present invention were tested for their Factor Xa inhibitory activity as determined in vitro by their ability to inhibit human Factor Xa in a fluorogenic assay, using Rhodamine 110, bis-CBZ-glycylglycyl-L-arginine amide as the fluorogenic substrate. Compounds were diluted from a 10 mM stock solution in dimethylsulfoxide at appropriate concentrations. Assay was performed at room temperature using buffer consisting of: 50 mM Tris-HCl, 150 mM NaCl, 5 mM CaCl2, pH 7.4. containing human Factor Xa (final conc. Of 0.0003 U·ml−1). Compound and enzyme were preincubated for 15 min prior to addition of the substrate (final conc. of 10 μM). The reaction was stopped after 3 hrs with the addition of H-D-Phe-Pro-Arg-Chloromethylketone. An LJL-Analyst fluorimeter was used to monitor fluorescence with 485 nm excitation/535 nm emission. To obtain IC50 values the data were analysed using ActivityBase® and XLfit®.
Calculation of Ki Values: Ki=IC50/(1+[Substrate]/Km)
The Ki value for the above assay can be obtained by dividing the IC50 value by 1.6.

Ki, < 10 nM:
C/C(=C\S(=O)(=O)NC1CCN(c2ccc(-n3ccnc3CN3CCC3)cc2F)C1=O)c1ccc(Cl)s1 (centres unmarked) [Example 1, (1E)-N-(1-{4-[2-(1-Azetidinylmethyl)-1H-imidazol-1-yl]-2-fluorophenyl}-2-oxo-3-pyrrolidinyl)-2-(5-chloro-thienyl)-1-propene-1-sulfonamide formate]
O=C1C(NS(=O)(=O)CCc2ccc(Cl)s2)CCN1c1ccc(-n2ccnc2CN2CCC2)cc1F (centres unmarked) [Example 2, N-(1-{4-[2-(1-Azetidinylmethyl)-1H-imidazol-1-yl]-2-fluorophenyl}-2-oxo-3-pyrrolidinyl)-2-(5-chloro-2-thienyl)ethanesulfonamide formate]
C/C(=C\S(=O)(=O)NC1CCN(c2ccc(-n3ccnc3CN3CCC(F)C3)cc2F)C1=O)c1ccc(Cl)s1 (centres unmarked) [Example 5, (1E)-2-(5-Chloro-2-thienyl)-N-[1-(2-fluoro-4-{2-[(3-fluoro-1-pyrrolidinyl)methyl]-1H-imidazol-1-yl}phenyl)-2-oxo-3-pyrrolidinyl]-1-propene-1-sulfonamide formate]
O=C1C(NS(=O)(=O)c2cc3ccc(Cl)cc3s2)CCN1c1ccc(-n2ccnc2CN2CCC(F)C2)cc1F (centres unmarked) [Example 6, 6-Chloro-N-[1-(2-fluoro-4-{2-[(3-fluoro-1-pyrrolidinyl)methyl]-1H-imidazol-1-yl}phenyl)-2-oxo-3-pyrrolidinyl]-1-benzothiophene-2-sulfonamide formate]
COC1CN(Cc2nccn2-c2ccc(N3CCC(NS(=O)(=O)c4cc5ccc(Cl)cc5s4)C3=O)c(F)c2)C1 (centres unmarked) [Example 7, 6-Chloro-N-{1-[2-fluoro-4-(2-{[3-(methyloxy)-1-azetidinyl]methyl}-1H-imidazol-1-yl)phenyl]-2-oxo-3-pyrrolidinyl}-1-benzothiophene-2-sulfonamide formate]
